Experimental data published in US10858359B2, “Heterocyclic ring derivatives useful as SHP2 inhibitors” (priority 2016, dated 2020).
Structures can show the parent of a compound that is named as a salt.

Tests used:
KYSE-520 cells = assay: Cell proliferation assay (MTS/PMS); format: cell-based; settings: Homo sapiens, 192 h, 1500 cells/well, RPMI-1640 3% FBS, read at day 8
Procedure: For drug treatment, compounds of the invention at various concentrations were added 24 hours after cell plating. At day 8, 50 μL MTS/PMS reagents (Promega/Sigma) were added, and the absorbance value was determined according to the supplier's instruction (Promega).

SHP2 [1] = biological target: T1, SHP2 (Homo sapiens (Human), UniProt Q06124); assay: Phosphatase assay (single dose inhibition), DiFMUP substrate; format: biochemical; settings: compound at 0.1 μM (100 nM); SHP2 0.5 nM activated with dPEG8 peptide; DiFMUP 12 μM; relative to DMSO control
Procedure: DMSO [0.5% (v/v)] or compounds (100 nM) were added to the mixture and incubated for 30 min at room temperature. […] The experiment is carried out in triplicate. The value for the control sample (DMSO) was set to 100%, and the values for the compound-treated samples were expressed as activity relative to the control sample.

SHP2 [2] = biological target: T1, SHP2; assay: Phosphatase assay (IC50), DiFMUP substrate; format: biochemical; settings: SHP2 0.5 nM activated with dPEG8 peptide; DiFMUP 12 μM; compounds 0.3 nM to 1 μM
Procedure: DMSO [0.5% (v/v)] or compounds (concentrations ranging from 0.3 nM to 1 μM) were added to the mixture and incubated for 30 min at room temperature.

SMILES	inhibition at 0.1 µM (SHP2 [1])	IC50 (SHP2 [2])	IC50 (KYSE-520 cells)
CN(C)C(=O)C(=O)Nc1cccc(Sc2ncc(N3CCC4(CC3)COC[C@H]4N)nc2N)c1Cl [Example 1, (S)-N1-(3-((3-amino-5-(4-amino-2-oxa-8-azaspiro[4.5]decan-8-yl)pyrazin-2-yl)thio)-2-chlorophenyl)-N2,N2-dimethyloxalamide hydrochloride]	–	–	15.9 µM
CN(C)C(=O)C(=O)c1ccc(C(=O)Nc2cccc(Sc3ncc(N4CCC(C)(N)CC4)nc3N)c2Cl)cc1 [Example 3, N-(3-((3-amino-5-(4-amino-4-methylpiperidin-1-yl)pyrazin-2-yl)thio)-2-chlorophenyl)-4-(2-(dimethylamino)-2-oxoacetyl)benzamide]	60%	–	–
Nc1nc(N2CCC3(CC2)COC[C@H]3N)cnc1Sc1cccc2c1C(F)(F)C(=O)N2 [Example 8, (S)-4-((3-amino-5-(4-amino-2-oxa-8-azaspiro[4.5]decan-8-yl)pyrazin-2-yl)thio)-3,3-difluoroindolin-2-one]	76%	0.0214 µM	26.4 µM
Nc1nc(N2CCC3(CC2)COC[C@H]3N)cnc1Sc1ccnc2c1C(F)(F)C(=O)N2 [Example 10, (S)-4-((3-amino-5-(4-amino-2-oxa-8-azaspiro[4.5]decan-8-yl)pyrazin-2-yl)thio)-3,3-difluoro-1H-pyrrolo[2,3-b]pyridin-2(3H)-one]	81%	0.03 µM	–
CN1C(=O)C(F)(F)c2c(Sc3ncc(N4CCC5(CC4)COC[C@H]5N[S@+]([O-])C(C)(C)C)nc3N)cccc21 [Example 11, (R)-N-((S)-8-(6-amino-5-((3,3-difluoro-1-methyl-2-oxoindolin-4-yl)thio)pyrazin-2-yl)-2-oxa-8-azaspiro[4.5]decan-4-yl)-2-methylpropane-2-sulfinamide]	–	–	12 µM
CC(=O)N1CC(F)(F)c2c(Sc3ncc(N4CCC(C)(CNC(=O)OC(C)(C)C)CC4)nc3N)cccc21 [Example 13, tert-butyl ((1-(5-((1-acetyl-3,3-difluoroindolin-4-yl)thio)-6-aminopyrazin-2-yl)-4-methylpiperidin-4-yl)methyl)carbamate]	–	–	20.6 µM
CN(C)C(=O)C(=O)Nc1cccc(Sc2ncc(N3CCC(C)(CN)CC3)nc2N)c1Cl [Example 20, N^1-(3-((3-amino-5-(4-(aminomethyl)-4-methylpiperidin-1-yl)pyrazin-2-yl)thio)-2-chlorophenyl)-N^2,N^2-dimethyloxalamide]	57%	–	–
CN(C)C(=O)C(=O)Nc1cccc(Sc2ncc(N3CCC(C)(N)CC3)nc2N)c1Cl [Example 29, N^1-(3-((3-amino-5-(4-amino-4-methylpiperidin-1-yl)pyrazin-2-yl)thio)-2-chlorophenyl)-N^2,N^2-dimethyloxalamide]	47%	–	–
Cc1ccc(C(=O)C(=O)Nc2cccc(Sc3ncc(N4CCC(C)(N)CC4)nc3N)c2Cl)cc1 [Example 31, N-(3-((3-amino-5-(4-amino-4-methylpiperidin-1-yl)pyrazin-2-yl)thio)-2-chlorophenyl)-2-oxo-2-(p-tolyl)acetamide]	53%	–	–
C=CC(=O)Nc1cccc(Sc2ncc(N3CCC(C)(NC(=O)OC(C)(C)C)CC3)nc2N)c1Cl [Example 32, tert-butyl (1-(5-((3-acrylamido-2-chlorophenyl)thio)-6-aminopyrazin-2-yl)-4-methylpiperidin-4-yl)carbamate]	49%	–	–
CN(C)C(=O)C(=O)c1ccc(C(=O)Nc2nccc(Sc3ncc(N4CCC(C)(N)CC4)nc3N)c2Cl)cc1 [Example 34, N-(4-((3-amino-5-(4-amino-4-methylpiperidin-1-yl)pyrazin-2-yl)thio)-3-chloropyridin-2-yl)-4-(2-(dimethylamino)-2-oxoacetyl)benzamide]	37%	–	–
CN(C)C(=O)C(=O)c1ccc(C(=O)Nc2nccc(Sc3ncc(N4CCC(C)(CN)CC4)nc3N)c2Cl)cc1 [Example 35, N-(4-((3-amino-5-(4-(aminomethyl)-4-methylpiperidin-1-yl)pyrazin-2-yl)thio)-3-chloropyridin-2-yl)-4-(2-(dimethylamino)-2-oxoacetyl)benzamide]	30%	–	–
Nc1nc(N2CCC3(CC2)COC[C@H]3N)cnc1Sc1ccnc2[nH]ccc12 [Example 38, (S)-8-(5-((1H-pyrrolo[2,3-b]pyridin-4-yl)thio)-6-aminopyrazin-2-yl)-2-oxa-8-azaspiro[4.5]decan-4-amine]	30%	–	–
Nc1nc(N2CCC3(CC2)COC[C@H]3N)cnc1Sc1cccc2[nH]cc(F)c12 [Example 40, (S)-8-(6-amino-5-((3-fluoro-1H-indol-4-yl)thio)pyrazin-2-yl)-2-oxa-8-azaspiro[4.5]decan-4-amine]	71%	0.0406 µM	–

The next lines start with results.

inhibition at 0.1 µM (SHP2 [1])	IC50 (SHP2 [2])	SMILES	IC50 (KYSE-520 cells)
58%	–	Nc1nc(N2CCC3(CC2)COC[C@H]3N)cnc1Sc1cccc2[nH]ccc12 [Example 42, (S)-8-(5-((1H-indol-4-yl)thio)-6-aminopyrazin-2-yl)-2-oxa-8-azaspiro[4.5]decan-4-amine]	–
43%	–	CC(=O)n1ccc2c(Sc3ncc(N4CCC5(CC4)COC[C@H]5N)nc3N)cccc21 [Example 43, (S)-1-(4-((3-amino-5-(4-amino-2-oxa-8-azaspiro[4.5]decan-8-yl)pyrazin-2-yl)thio)-1H-indol-1-yl)ethanone]	–
61%	–	CN1C(=O)C(F)(C(F)(F)F)c2c(Sc3ncc(N4CCC5(CC4)COC[C@H]5N)nc3N)cccc21 (stereo partly drawn) [Example 58, 4-((3-amino-5-((S)-4-amino-2-oxa-8-azaspiro[4.5]decan-8-yl)pyrazin-2-yl)thio)-3-fluoro-1-methyl-3-(trifluoromethyl)indolin-2-one]	–
31%	–	CC(=O)N1CCc2c(Sc3ncc(N4CCC5(CC4)COC[C@H]5N)nc3N)cccc21 [Example 72, (S)-1-(4-((3-amino-5-(4-amino-2-oxa-8-azaspiro[4.5]decan-8-yl)pyrazin-2-yl)thio)indolin-1-yl)ethanone]	–
75%	0.0083 µM	Nc1nc(N2CCC3(CC2)CC2CC2C3N)cnc1Sc1ccnc(N)c1Cl (centres unmarked) [Example 74, 1′-(6-amino-5-((2-amino-3-chloropyridin-4-yl)thio)pyrazin-2-yl)spiro[bicyclo[3.1.0]hexane-3,4′-piperidin]-2-amine]	3.38 µM
35%	–	Nc1nc(N2CCC3(CC2)C(=O)N2CCCC2C3N)cnc1Sc1ccnc(N)c1Cl (centres unmarked) [Example 75, 1′-amino-1-(6-amino-5-((2-amino-3-chloropyridin-4-yl)thio)pyrazin-2-yl)tetrahydrospiro[piperidine-4,2′-pyrrolizin]-3′(1′H)-one]	–
